The values below come from patent US5700481A, “Transdermal drug delivery process” (Takeda Chemical Industries, Ltd., priority 1995, dated 1997).

Series [1] is described as follows: Transdermal iontophoretic delivery of salmon calcitonin; serum concentration by radioimmunoassay and bioavailability (AUC relative to intravenous) (Example 1). The format is in vivo, SD rat (male, 7-week aged). The following applies: for bioavailability (BA): 20 μg per membrane (BSA pretreated), 40 kHz, duty 30%, 15 min x 3 at 5 min interval, vs intravenous AUC. The method, then:
(§1) An abdominal skin of a SD rat (male, 7-week aged) was clipped with a hair clipper and treated with a shaver under pentobarbital-anesthetization, and was slightly rubbed with an absorbent cotton (cotton wool) containing a 70% aqueous solution of ethanol for defatting and disinfection. […] Meanwhile, in the Applicator A shown in FIG. 1, the dried drug was dissolved immediately before use by supplying or feeding water to the membrane from the reservoir. In the applicator B illustrated in FIG. 2, the applicator was first attached or adhered to the skin and then the dried drug was dissolved by supplying 120 μl of a distilled water from an injection tip. Further, a silver chloride electrode (2.5 cm^2) as a reference electrode was adhered and fixed in the opposite part to the adhered part of the applicator via an electrically conductible gel comprising 10% PVA gel containing 0.9% of NaCl in a thickness of 2 mm.
Then, a continuous voltage application for 15 minutes was repeated for 3 times at a time interval of 5 minutes in the following manner. That is, the voltage application was effected by a direct-current pulse application (depolarizing constant voltage square pulse application) with a frequency of 40 kHz and a duty (pulse-duty factor) of 30% using the applicator as an anode and the reference electrode as a cathode, with changing the applied voltage as follows. In the respective voltage application, observed electric current in the initial stage of the voltage application was respectively determined for each rat. The current density as a mean value for the subjects are as follows.
(1) Applicator A: voltage 6 V current density about 0.04 mA/cm^2
(2) Applicator B: voltage 12 V current density about 0.24 mA/cm^2
(3) Applicator C: voltage 12 V current density about 0.24 mA/cm^2
(§2) Blood was took from jugular veins (cervical vein) of the rat and centrifuged at a rate of 12,000 rpm for 10 minutes, and the concentration of the salmon calcitonin in the obtained serum sample was determined by a radioimmunoassay method. The results are illustrated in FIG. 3.

Series [2] in a line: Transdermal iontophoretic delivery of salmon calcitonin with different amounts in drug-retaining membrane (Example 2). The class given is in vivo, SD rat (male, 7-week aged). Conditions: 12 V. The method, then:
as §1, with “Further, a silver chloride electrode (2.5 cm^2) as a reference electrode was adhered and fixed in the opposite part to the adhered part of the applicator via an electrically conductible gel comprising 10% PVA gel containing 0.9% of NaCl in a thickness of 2 mm.” left out
Blood was took from jugular veins (cervical vein) of the rat and centrifuged at a rate of 12,000 rpm for 10 minutes, and the concentration of the salmon calcitonin in the obtained serum sample was determined by a radioimmunoassay method. […]
(§3) Under pentobarbital-anesthetization, an abdominal skin of a SD rat (male, 7-week aged) was clipped with a hair clipper and treated with a shaver, and was slightly rubbed with an absorbent cotton (cotton wool) containing a 70% aqueous solution of ethanol for defatting and disinfection. […] The current density determined in the initial stage of the voltage application was about 0.24 mA/cm^2 as a mean value of the each rat. […]

Series [3] can be described thus: Correlation between initial electric current value and AUC value (Example 3). The format is in vivo, SD rat (male, 7-week aged). The following applies: in terms of dosage of 20 μg; initial current 0.2 mA/2.5 cm^2 to 0.7 mA/2.5 cm^2 (0.08 to 0.28 mA/cm^2); 48 tests; FIG. 5. The method, then: as §1, with “Further, a silver chloride electrode (2.5 cm^2) as a reference electrode was adhered and fixed in the opposite part to the adhered part of the applicator via an electrically conductible gel comprising 10% PVA gel containing 0.9% of NaCl in a thickness of 2 mm.” left out
Then, a continuous voltage application for 15 minutes was repeated for 3 times at a time interval of 5 minutes in the following manner. […] In the respective voltage application, observed electric current in the initial stage of the voltage application was respectively determined for each rat. […]
as §3

Series [4] can be described thus: Transdermal iontophoretic delivery of salmon calcitonin with stepwise decreased voltage (Example 4). The class given is in vivo, male SD rat (7-week aged). Conditions: for bioavailability (BA): Applicator A, 4 μg per membrane (BAC pretreated), 30 kHz, duty 50%. The method, then: as §2
An abdominal skin of a male SD rat (7-week aged) was clipped with a hair clipper and treated with a shaver under pentobarbital-anesthetization, and was slightly rubbed with an absorbent cotton holding a 70% aqueous solution of ethanol for defatting and disinfection. […] Immediately before the use of the applicator, the dried drug was dissolved by supplying water from the reservoir. Further, a reference electrode was attached and fixed to the skin in the same manner as Example 1.
Then, in the common condition of a frequency of 30 kHz and a duty of 50%, the calcitonin was transdermally delivered according to the following processes:
(1) a process of applying a voltage of 12 V for 5 minutes and, without interruption, applying a voltage of 7.5 V for 40 minutes,
(2) a process of applying a voltage of 12 V for 15 minutes and, without interruption, applying a voltage of 7.5 V for 30 minutes, and
(3) a process of applying a voltage of 12 V for 15 minutes.
The salmon calcitonin concentrations in the serum were evaluated in the same manner as Example 1, and the results are illustrated in FIG. 6.

On to salmon calcitonin, for which the “bioavailability (BA)” value in series [1] (Applicator A, applied voltage 6 V) is listed as 4.6%; in series [1] (Applicator A, applied voltage 12 V), 16.6%; in series [1] (Applicator B, applied voltage 12 V) it was 16.6%; in series [2] (Applicator B, drug-retaining membrane (1), 10 μg (BAC pretreated), 40 kHz, duty 30%, 15 min x 3 at 5 min interval), 23.3%; in series [4] (process (1): 12 V for 5 min then 7.5 V for 40 min), 13.6%; in series [4] (process (2): 12 V for 15 min then 7.5 V for 30 min) it was 14.2%. Moreover, the “bioavailability (BA)” value in series [4] (process (3): 12 V for 15 min) amounted to 3.6%. Also, the “salmon calcitonin concentration in the serum” value in series [1] (applied voltage 12 V (iontophoresis (2) and (3)) in comparison with 6 V (1), FIG. 3) is reported as “can be increased in comparison with the iontophoresis (1)”. Further, the “serum salmon calcitonin concentration” value in series [2] (according to possessing amount (10 or 20 μg), FIG. 4) was “could be controlled according to the possessing amount”; in series [4] (processes (1) and (2) compared with process (3), FIG. 6), “high”. For the same substance, in series [3], the AUC value result is listed as “large AUC values”.
